Measured values: ChEMBL document CHEMBL1201862, “PubChem BioAssay data set” (2004)
Activity calls are given as the source filed them.

Assays:
[1] = system: INS1; assay: beta cell apoptosis inhibitors, cytokine rescue, dose response, luminescence, retest (AID 449756); type: functional, cell-based; settings: Rattus norvegicus;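 also: cell death triggered by IL-1 beta plus TNF-alpha plus IFN-gamma mixture; protective hits raise ATP signal compared with cytokine alone wells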
[2] = biological target: T1, Exodeoxyribonuclease V (Escherichia coli (strain K12), UniProt P04993+P07648+P08394); assay: E. coli RecBCD inhibitors, dose response, counter-screen for AddAB inhibitor project, absorbance, V66 E. coli, mutant T4 phage (AID 492957); type: functional, cell-based, Escherichia coli str. K-12 substr. MG1655
T1 sequence (P04993 whole entry): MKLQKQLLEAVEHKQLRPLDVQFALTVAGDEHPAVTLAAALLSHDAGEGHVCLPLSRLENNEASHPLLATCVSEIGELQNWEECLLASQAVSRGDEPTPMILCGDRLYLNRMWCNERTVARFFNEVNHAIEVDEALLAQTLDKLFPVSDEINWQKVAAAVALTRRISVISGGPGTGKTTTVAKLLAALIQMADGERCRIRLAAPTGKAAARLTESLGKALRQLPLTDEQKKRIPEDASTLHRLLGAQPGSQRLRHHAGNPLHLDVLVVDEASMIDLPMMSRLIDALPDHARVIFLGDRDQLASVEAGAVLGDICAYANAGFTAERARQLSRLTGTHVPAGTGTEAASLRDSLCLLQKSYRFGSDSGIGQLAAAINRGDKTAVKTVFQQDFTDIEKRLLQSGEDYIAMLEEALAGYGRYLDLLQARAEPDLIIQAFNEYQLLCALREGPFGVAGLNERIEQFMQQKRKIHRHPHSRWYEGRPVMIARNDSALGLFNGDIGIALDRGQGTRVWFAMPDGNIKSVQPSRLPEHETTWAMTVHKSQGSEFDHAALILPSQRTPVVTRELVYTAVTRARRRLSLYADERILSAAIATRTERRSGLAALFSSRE
T1 sequence (P07648 whole entry): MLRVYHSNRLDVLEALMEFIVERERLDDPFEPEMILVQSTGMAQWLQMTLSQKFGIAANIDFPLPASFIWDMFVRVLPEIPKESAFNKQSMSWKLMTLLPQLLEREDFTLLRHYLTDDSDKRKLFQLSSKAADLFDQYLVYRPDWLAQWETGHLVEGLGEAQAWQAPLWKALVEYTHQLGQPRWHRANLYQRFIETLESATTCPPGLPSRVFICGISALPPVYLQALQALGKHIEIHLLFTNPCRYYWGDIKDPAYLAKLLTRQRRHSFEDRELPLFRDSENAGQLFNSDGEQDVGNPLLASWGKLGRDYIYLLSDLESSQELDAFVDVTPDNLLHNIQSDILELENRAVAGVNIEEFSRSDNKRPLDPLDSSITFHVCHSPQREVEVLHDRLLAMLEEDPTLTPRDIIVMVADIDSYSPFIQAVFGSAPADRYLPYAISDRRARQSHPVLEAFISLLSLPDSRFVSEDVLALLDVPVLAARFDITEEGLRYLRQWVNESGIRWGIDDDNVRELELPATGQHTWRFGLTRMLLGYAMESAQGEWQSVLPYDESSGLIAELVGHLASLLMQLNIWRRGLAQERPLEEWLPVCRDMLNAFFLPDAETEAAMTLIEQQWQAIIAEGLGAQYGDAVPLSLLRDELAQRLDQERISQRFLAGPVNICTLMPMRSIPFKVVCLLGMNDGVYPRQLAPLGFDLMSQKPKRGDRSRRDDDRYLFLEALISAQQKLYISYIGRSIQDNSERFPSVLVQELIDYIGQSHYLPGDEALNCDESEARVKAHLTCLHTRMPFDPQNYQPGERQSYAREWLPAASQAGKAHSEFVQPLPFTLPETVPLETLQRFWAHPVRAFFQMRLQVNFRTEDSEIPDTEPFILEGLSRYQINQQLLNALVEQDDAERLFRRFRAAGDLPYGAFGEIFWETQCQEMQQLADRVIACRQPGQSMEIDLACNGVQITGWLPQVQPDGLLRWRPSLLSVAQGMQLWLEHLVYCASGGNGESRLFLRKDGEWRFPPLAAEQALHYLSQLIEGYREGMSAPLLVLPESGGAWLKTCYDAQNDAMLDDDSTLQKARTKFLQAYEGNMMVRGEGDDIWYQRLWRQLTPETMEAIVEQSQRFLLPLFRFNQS
T1 sequence (P08394 whole entry): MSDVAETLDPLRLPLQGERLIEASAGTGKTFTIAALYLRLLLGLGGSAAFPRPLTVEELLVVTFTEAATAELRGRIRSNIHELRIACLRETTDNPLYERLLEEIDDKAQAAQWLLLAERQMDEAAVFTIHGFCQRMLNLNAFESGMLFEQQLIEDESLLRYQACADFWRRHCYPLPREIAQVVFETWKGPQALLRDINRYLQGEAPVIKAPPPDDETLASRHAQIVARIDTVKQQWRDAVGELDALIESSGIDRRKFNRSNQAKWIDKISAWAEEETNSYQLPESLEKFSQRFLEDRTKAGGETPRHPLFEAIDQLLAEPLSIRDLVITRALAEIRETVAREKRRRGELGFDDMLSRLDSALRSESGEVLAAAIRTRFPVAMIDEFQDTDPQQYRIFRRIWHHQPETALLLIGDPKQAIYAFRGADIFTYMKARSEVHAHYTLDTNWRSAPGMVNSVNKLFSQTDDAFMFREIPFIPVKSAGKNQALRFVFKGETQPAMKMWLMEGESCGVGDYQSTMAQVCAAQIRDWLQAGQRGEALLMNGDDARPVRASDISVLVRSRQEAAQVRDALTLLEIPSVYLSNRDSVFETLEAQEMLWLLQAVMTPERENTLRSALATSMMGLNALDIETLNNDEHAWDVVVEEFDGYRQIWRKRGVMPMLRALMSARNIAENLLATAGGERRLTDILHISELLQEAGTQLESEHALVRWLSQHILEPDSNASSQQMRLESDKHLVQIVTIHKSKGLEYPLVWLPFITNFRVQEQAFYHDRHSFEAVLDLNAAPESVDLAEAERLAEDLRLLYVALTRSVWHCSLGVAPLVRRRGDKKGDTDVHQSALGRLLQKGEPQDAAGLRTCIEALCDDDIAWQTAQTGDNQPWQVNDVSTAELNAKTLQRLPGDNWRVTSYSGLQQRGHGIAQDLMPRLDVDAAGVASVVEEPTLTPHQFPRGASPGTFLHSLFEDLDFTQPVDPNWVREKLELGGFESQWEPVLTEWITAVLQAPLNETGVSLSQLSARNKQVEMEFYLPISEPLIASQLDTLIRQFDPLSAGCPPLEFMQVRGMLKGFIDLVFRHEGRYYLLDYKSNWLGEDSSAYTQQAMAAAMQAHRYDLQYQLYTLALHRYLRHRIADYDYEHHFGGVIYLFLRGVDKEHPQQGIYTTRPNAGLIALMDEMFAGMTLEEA

[3] = C. albicans growth with fluconazole, confirmation, fluorescence, retest (AID 2467); type: functional, cell-based
[4] = cells; type: functional, cell-based

SMILES | AC50 [1] | IC50 [2] | EC50 [3] | EC50 [4]
O=C(N/N=C/c1ccc(O)cc1O)c1ccc(CN2C(=O)c3cccc4cccc2c34)cc1 | 0.768 µM (active) | > 119 µM (inactive) | 0.384 µM (active) | 31 µM (active)
CCC(=O)NC(c1ccccc1OC)c1ccc2cccnc2c1O (stereo not drawn) | 1.17 µM (active) | > 119 µM (inactive) | 1.48 µM (active) | 7.23 µM (active)
